From PMC9851200, “Multiparameter phenotypic screening for endogenous TFEB and TFE3 translocation identifies novel chemical series modulating lysosome function” (Autophagy, 2022)

Assays:
[1] = tested on: TFE3; test: TFE3 nuclear translocation in iPSC-derived i3Neurons; type: cell-based, human; conditions: day 10
Experimental: hiPSCs were maintained under feeder-free conditions in a 37°C, 5% CO2 tissue culture incubator on tissue culture treated dishes coated with growth factor-reduced Matrigel (Corning, 354,277) and fed every 1–2 days with Essential 8 medium (Life Technologies, A1517001), as needed. Accutase ([…] Technologies, 07920) was used to enzymatically dissociate hiPSCs into single cells, and 0.5 mM EDTA was used for routine dissociation to maintain colony growth. To promote cell survival during passaging, cells were passaged with the ROCK/p160-Rho-associated coiled coil kinase inhibitor Y-27632 ([…]; Selleckchem, S1049). hiPSC-derived i^3Neurons were induced and differentiated according to Fernandopulle et al. and replated on high-content 96-well dishes (PerkinElmer, CellCarrierUltra-96) by day 3. […]
After the required compound incubation, media was removed from the wells and the cells were fixed in 4% paraformaldehyde (PFA; ThermoFisher Scientific/Pierce, 28,908) for 20 min. […] The Harmony image analysis software (Perkin Elmer) was used to identify nuclei TFEB or TFE3 positive nuclei, expressed as a percentage of total cell number (See Figure S2 and S3 for analysis protocols). Mean values and standard deviation of DMSO control wells on the plate were calculated. […]

[2] = target: T1, kinases (KINOMEscan panel) (Homo sapiens, UniProt O76039); set-up: method as in original PKIS2 published data; conditions: kinase CDKL5; Published KINOMEscan; ref original PKIS2 published data; cited from earlier work
T1 sequence (O76039 1-960): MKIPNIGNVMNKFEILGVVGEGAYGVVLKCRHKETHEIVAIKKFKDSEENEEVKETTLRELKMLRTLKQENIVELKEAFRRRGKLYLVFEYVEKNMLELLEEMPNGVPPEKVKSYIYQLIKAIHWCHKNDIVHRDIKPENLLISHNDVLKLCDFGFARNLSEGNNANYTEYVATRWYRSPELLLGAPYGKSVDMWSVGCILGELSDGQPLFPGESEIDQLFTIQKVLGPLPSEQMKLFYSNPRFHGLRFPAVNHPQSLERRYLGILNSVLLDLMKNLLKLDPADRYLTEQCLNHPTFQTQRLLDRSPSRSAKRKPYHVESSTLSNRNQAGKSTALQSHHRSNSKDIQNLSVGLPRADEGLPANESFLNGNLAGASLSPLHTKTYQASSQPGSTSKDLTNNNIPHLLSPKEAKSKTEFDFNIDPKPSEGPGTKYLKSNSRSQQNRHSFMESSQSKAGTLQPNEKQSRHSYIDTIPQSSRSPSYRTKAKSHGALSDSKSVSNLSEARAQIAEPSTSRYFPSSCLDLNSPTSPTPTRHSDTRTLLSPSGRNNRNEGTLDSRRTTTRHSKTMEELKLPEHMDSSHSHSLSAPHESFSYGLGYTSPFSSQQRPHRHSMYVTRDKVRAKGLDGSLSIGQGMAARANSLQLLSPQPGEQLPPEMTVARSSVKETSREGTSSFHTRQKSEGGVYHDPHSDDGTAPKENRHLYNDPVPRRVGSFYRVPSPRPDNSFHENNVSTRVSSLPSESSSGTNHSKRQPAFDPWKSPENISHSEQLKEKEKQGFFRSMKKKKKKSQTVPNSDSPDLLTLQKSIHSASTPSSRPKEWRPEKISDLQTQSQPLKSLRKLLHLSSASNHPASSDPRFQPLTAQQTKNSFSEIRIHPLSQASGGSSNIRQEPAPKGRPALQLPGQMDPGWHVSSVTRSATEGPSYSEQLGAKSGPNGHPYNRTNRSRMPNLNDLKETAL

[3] = target: T2, kinases (KINOMEscan panel) (Homo sapiens, UniProt O15146); set-up: method as in original PKIS2 published data; conditions: MUSK; Published KINOMEscan; ref original PKIS2 published data; cited from earlier work
T2 sequence (O15146 24-869): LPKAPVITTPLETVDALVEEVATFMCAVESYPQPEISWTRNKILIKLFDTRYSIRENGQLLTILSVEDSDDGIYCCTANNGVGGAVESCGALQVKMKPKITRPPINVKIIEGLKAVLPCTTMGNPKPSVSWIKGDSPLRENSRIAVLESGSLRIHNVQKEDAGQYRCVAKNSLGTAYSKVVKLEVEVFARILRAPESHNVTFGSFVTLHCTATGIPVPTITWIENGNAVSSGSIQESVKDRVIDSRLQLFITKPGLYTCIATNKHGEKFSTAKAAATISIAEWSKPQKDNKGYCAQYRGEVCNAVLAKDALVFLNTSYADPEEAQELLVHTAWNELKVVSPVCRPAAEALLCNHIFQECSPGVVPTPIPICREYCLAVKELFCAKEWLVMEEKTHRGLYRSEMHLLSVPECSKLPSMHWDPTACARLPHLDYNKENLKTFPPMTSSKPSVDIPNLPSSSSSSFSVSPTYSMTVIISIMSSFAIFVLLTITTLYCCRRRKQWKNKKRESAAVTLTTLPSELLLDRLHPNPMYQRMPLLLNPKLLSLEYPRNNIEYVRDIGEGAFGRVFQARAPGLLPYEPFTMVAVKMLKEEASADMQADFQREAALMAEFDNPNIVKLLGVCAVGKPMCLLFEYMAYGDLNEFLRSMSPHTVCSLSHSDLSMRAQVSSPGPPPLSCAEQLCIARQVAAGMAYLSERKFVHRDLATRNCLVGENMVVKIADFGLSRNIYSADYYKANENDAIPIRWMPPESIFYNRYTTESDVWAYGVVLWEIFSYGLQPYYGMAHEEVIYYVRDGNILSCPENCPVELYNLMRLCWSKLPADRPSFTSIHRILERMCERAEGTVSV

[4] = target: kinases (KINOMEscan panel) (Homo sapiens, UniProt P15056); set-up: method as in original PKIS2 published data; conditions: BRAF; Published KINOMEscan; ref original PKIS2 published data; cited from earlier work
kinases (KINOMEscan panel) (Homo sapiens, UniProt P15056), sequence (P15056 whole entry): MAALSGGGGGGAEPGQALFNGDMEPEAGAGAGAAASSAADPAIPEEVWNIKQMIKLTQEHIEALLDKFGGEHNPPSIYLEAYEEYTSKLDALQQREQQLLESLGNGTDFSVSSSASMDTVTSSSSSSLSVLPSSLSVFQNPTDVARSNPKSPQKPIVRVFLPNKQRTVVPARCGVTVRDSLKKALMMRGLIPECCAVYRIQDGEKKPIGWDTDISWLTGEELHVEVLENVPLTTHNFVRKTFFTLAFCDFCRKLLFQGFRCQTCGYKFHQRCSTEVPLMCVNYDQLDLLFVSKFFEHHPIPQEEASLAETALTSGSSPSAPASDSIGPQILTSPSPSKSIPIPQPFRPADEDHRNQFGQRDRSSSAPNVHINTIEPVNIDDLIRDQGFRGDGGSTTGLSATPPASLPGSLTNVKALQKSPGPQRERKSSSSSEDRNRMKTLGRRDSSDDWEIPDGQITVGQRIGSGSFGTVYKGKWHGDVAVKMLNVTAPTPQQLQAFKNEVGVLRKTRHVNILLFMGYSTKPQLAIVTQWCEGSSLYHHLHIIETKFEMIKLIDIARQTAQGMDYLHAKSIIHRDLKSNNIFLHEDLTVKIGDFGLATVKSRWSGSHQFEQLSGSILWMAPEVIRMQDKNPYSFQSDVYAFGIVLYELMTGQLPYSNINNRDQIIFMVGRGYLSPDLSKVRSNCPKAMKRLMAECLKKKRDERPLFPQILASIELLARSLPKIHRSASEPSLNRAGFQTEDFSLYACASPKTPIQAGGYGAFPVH

In the case of Cc1cccc(-c2nc(Nc3ccc4ncsc4c3)c3ccccc3n2)n1 [NK140], the “Nuclear translocation of TFE3 in i3Neurons (in words)” value [1] is reported as “trend toward upregulation of TFE3 translocation”.

In the case of Cc1cccc(-c2nc(Nc3ccncc3)c3ccccc3n2)n1 [NK215], the “KINOMEscan CDKL5” value [2] is listed as 0, the “KINOMEscan MUSK” value [3] is listed as 17 and the “KINOMEscan BRAF” value [4] is listed as 0.
